# Results: patent publication US20150119363A1, “METHODS OF TREATING BACTERIAL INFECTIONS” (Rampex Pharmaceuticals, Inc., priority 2012, published 2015)
# Columns and labels:
# Assay type in all cases: cell-based
# [1] = system: Enterobacter cloacae ECL1058 (KPC-3, SHV-11, TEM-1); experiment: Checkerboard assay, Compound 5 with biapenem; conditions: ECL1058
# Excerpt: (§1) The potentiation effect is observed by the reduction of the minimum inhibitory concentration of β-lactam antibiotics in the presence of β-lactamase inhibitors (BLIs). […] Methods for Dilution of Antimicrobial Susceptibility Tests for Bacteria That Grow Aerobically—Eighth Edition; Approved Standard. CLSI Document M07-A8, 2009). In this assay, multiple dilutions of two drugs, namely BLI and β-lactam (biapenem), are being tested, alone and in combination, at concentrations equal to, above and below their respective minimal inhibitory concentrations (MICs). BLIs are solubilized in 10% DMSO at 10 mg/mL. Stock solutions are further diluted, according to the needs of a particular assay, in Mueller Hinton Broth (MHB). Stock solution can be stored at −80° C.
# (§2) The checkerboard (CB) assay is performed in microtiter plates. Biapenem is diluted in the x axis, each column containing a single concentration of antibiotic. BLIs are diluted in the y axis, each row containing an equal concentration of BLI. The result of these manipulations is that each well of the microtiter plate contains a unique combination of concentrations of the two agents. The assay is performed in MHB with a final bacterial inoculum of 5×10^5 CFU/mL (from an early-log phase culture). Microtiter plates are incubated during 20 h at 35° C. and are read using a microtiter plate reader (Molecular Devices) at 650 nm as well as visual observation using a microtiter plate reading mirror.
# [2] = system: Enterobacter cloacae ECL1059 (KPC-3, SHV-12, TEM-1); experiment: Checkerboard assay, Compound 5 with biapenem; conditions: ECL1059
# Excerpt: as §1, §2
# [3] = system: Escherichia coli EC1007 (KPC-3); experiment: Checkerboard assay, Compound 5 with biapenem; conditions: EC1007
# Excerpt: as §1, §2
# [4] = system: Klebsiella oxytoca KX1017 (KPC-2, OXA-2, SHV-30); experiment: Checkerboard assay, Compound 5 with biapenem; conditions: KX1017
# Excerpt: as §1, §2
# [5] = system: Klebsiella oxytoca KX1018 (KPC-2, SHV-40, OXY-1); experiment: Checkerboard assay, Compound 5 with biapenem; conditions: KX1018
# Excerpt: as §1, §2
# [6] = system: Klebsiella oxytoca KX1019 (KPC-2, OXA-2); experiment: Checkerboard assay, Compound 5 with biapenem; conditions: KX1019
# Excerpt: as §1, §2
# [7] = system: Klebsiella pneumoniae KP1004 (KPC-2); experiment: Checkerboard assay, Compound 5 with biapenem; conditions: KP1004
# Excerpt: as §1, §2
# [8] = system: Klebsiella pneumoniae KP1008 (KPC-2); experiment: Checkerboard assay, Compound 5 with biapenem; conditions: KP1008
# Excerpt: as §1, §2
# [9] = system: Klebsiella pneumoniae KP1082 (KPC-2, SHV-1); experiment: Checkerboard assay, Compound 5 with biapenem; conditions: KP1082
# Excerpt: as §1, §2
# [10] = system: Klebsiella pneumoniae KP1083 (KPC-3, SHV-1, TEM-1); experiment: Checkerboard assay, Compound 5 with biapenem; conditions: KP1083
# Excerpt: as §1, §2
# [11] = system: Klebsiella pneumoniae KP1084 (KPC-3, SHV-11, TEM-1); experiment: Checkerboard assay, Compound 5 with biapenem; conditions: KP1084
# Excerpt: as §1, §2
# [12] = system: Klebsiella pneumoniae KP1087 (KPC-2, CTX-M-15, SHV-11, TEM-1); experiment: Checkerboard assay, Compound 5 with biapenem; conditions: KP1087
# Excerpt: as §1, §2
# [13] = system: Klebsiella pneumoniae KP1088 (KPC-3, SHV-11, TEM-1); experiment: Checkerboard assay, Compound 5 with biapenem; conditions: KP1088
# Excerpt: as §1, §2
# [14] = system: Klebsiella pneumonia (KP1004) KPC-2; experiment: Biapenem MIC at various concentrations of Compound 5; conditions: KP1004 KPC-2
# [15] = system: bacterial strains that expressed the beta-lactamase, KPC-2 alone or in combination with NDM-1; experiment: Biapenem MIC at various concentrations of Compound 5 (summary)
# [16] = system: K. pneumoniae KP1081 (NDM-1, CMY-6, SHV-11, CTX-M-15, TEM-1); experiment: Aztreonam/Tigemonam MIC at various concentrations of BLI; conditions: KP1081
# Method: (§3) MIC values for each bacterial strain were measured for each antimicrobial compound at various concentrations of each BLI.
# [17] = system: bacterial strains that expressed the beta-lactamase, NDM-1 and CMY-6; experiment: Aztreonam/Tigemonam MIC at various concentrations of BLI (summary)
# Method: as §3
structure (smiles),measurement,setting,value
"O=C(O)C[C@@H]1CC[C@H](NC(=O)Cc2cccs2)B(O)O1 [Compound 5, 2-((3R,6S)-2-hydroxy-3-(2-(thiophen-2-yl)acetamido)-1,2-oxaborinan-6-yl)acetic acid]",Biapenem MIC,[1]; Compound 5 0.31 mg/L,Y (Y = MIC of 0.5 mg/L to 4 mg/L.)
same,Biapenem MIC,[1]; Compound 5 0.625 mg/L,Y (Y = MIC of 0.5 mg/L to 4 mg/L.)
same,Biapenem MIC,[1]; Compound 5 5 mg/L,X (X = MIC of less than 0.5 mg/L.)
same,Biapenem MIC,[1]; Compound 5 10 mg/L,X (X = MIC of less than 0.5 mg/L.)
same,Biapenem MIC,[2]; Compound 5 0.31 mg/L,X (X = MIC of less than 0.5 mg/L.)
same,Biapenem MIC,[2]; Compound 5 0.625 mg/L,X (X = MIC of less than 0.5 mg/L.)
same,Biapenem MIC,[2]; Compound 5 5 mg/L,X (X = MIC of less than 0.5 mg/L.)
same,Biapenem MIC,[2]; Compound 5 10 mg/L,X (X = MIC of less than 0.5 mg/L.)
same,Biapenem MIC,[2]; Compound 5 […],X (X = MIC of less than 0.5 mg/L.)
same,Biapenem MIC,[3]; Compound 5 0.31 mg/L,X (X = MIC of less than 0.5 mg/L.)
same,Biapenem MIC,[3]; Compound 5 0.625 mg/L,X (X = MIC of less than 0.5 mg/L.)
same,Biapenem MIC,[3]; Compound 5 5 mg/L,X (X = MIC of less than 0.5 mg/L.)
same,Biapenem MIC,[3]; Compound 5 […],X (X = MIC of less than 0.5 mg/L.)
same,Biapenem MIC,[4]; Compound 5 0.31 mg/L,Y (Y = MIC of 0.5 mg/L to 4 mg/L.)
same,Biapenem MIC,[4]; Compound 5 0.625 mg/L,X (X = MIC of less than 0.5 mg/L.)
same,Biapenem MIC,[4]; Compound 5 5 mg/L,X (X = MIC of less than 0.5 mg/L.)
same,Biapenem MIC,[4]; Compound 5 10 mg/L,X (X = MIC of less than 0.5 mg/L.)
same,Biapenem MIC,[5]; Compound 5 0.31 mg/L,X (X = MIC of less than 0.5 mg/L.)
same,Biapenem MIC,[5]; Compound 5 0.625 mg/L,X (X = MIC of less than 0.5 mg/L.)
same,Biapenem MIC,[5]; Compound 5 5 mg/L,NG (NG = No Growth.)
same,Biapenem MIC,[5]; Compound 5 10 mg/L,NG (NG = No Growth.)
same,Biapenem MIC,[5]; Compound 5 […],X (X = MIC of less than 0.5 mg/L.)
same,Biapenem MIC,[6]; Compound 5 0.31 mg/L,Y (Y = MIC of 0.5 mg/L to 4 mg/L.)
same,Biapenem MIC,[6]; Compound 5 0.625 mg/L,Y (Y = MIC of 0.5 mg/L to 4 mg/L.)
same,Biapenem MIC,[6]; Compound 5 5 mg/L,X (X = MIC of less than 0.5 mg/L.)
same,Biapenem MIC,[6]; Compound 5 10 mg/L,X (X = MIC of less than 0.5 mg/L.)
same,Biapenem MIC,[6]; Compound 5 […],Y (Y = MIC of 0.5 mg/L to 4 mg/L.)
same,Biapenem MIC,[7]; Compound 5 0.31 mg/L,X (X = MIC of less than 0.5 mg/L.)
same,Biapenem MIC,[7]; Compound 5 0.625 mg/L,X (X = MIC of less than 0.5 mg/L.)
same,Biapenem MIC,[7]; Compound 5 5 mg/L,X (X = MIC of less than 0.5 mg/L.)
same,Biapenem MIC,[7]; Compound 5 10 mg/L,X (X = MIC of less than 0.5 mg/L.)
same,Biapenem MIC,[7]; Compound 5 […],X (X = MIC of less than 0.5 mg/L.)
same,Biapenem MIC,[8]; Compound 5 0.31 mg/L,X (X = MIC of less than 0.5 mg/L.)
same,Biapenem MIC,[8]; Compound 5 0.625 mg/L,X (X = MIC of less than 0.5 mg/L.)
same,Biapenem MIC,[8]; Compound 5 5 mg/L,NG (NG = No Growth.)
same,Biapenem MIC,[8]; Compound 5 10 mg/L,NG (NG = No Growth.)
same,Biapenem MIC,[8]; Compound 5 […],X (X = MIC of less than 0.5 mg/L.)
same,Biapenem MIC,[9]; Compound 5 0.31 mg/L,X (X = MIC of less than 0.5 mg/L.)
same,Biapenem MIC,[9]; Compound 5 0.625 mg/L,X (X = MIC of less than 0.5 mg/L.)
same,Biapenem MIC,[9]; Compound 5 5 mg/L,X (X = MIC of less than 0.5 mg/L.)
same,Biapenem MIC,[9]; Compound 5 10 mg/L,X (X = MIC of less than 0.5 mg/L.)
same,Biapenem MIC,[9]; Compound 5 […],X (X = MIC of less than 0.5 mg/L.)
same,Biapenem MIC,[10]; Compound 5 0.31 mg/L,X (X = MIC of less than 0.5 mg/L.)
same,Biapenem MIC,[10]; Compound 5 0.625 mg/L,X (X = MIC of less than 0.5 mg/L.)
same,Biapenem MIC,[10]; Compound 5 5 mg/L,X (X = MIC of less than 0.5 mg/L.)
same,Biapenem MIC,[11]; Compound 5 0.31 mg/L,Z (Z = MIC of greater than 4 mg/L.)
same,Biapenem MIC,[11]; Compound 5 0.625 mg/L,Z (Z = MIC of greater than 4 mg/L.)
same,Biapenem MIC,[11]; Compound 5 5 mg/L,X (X = MIC of less than 0.5 mg/L.)
same,Biapenem MIC,[11]; Compound 5 10 mg/L,X (X = MIC of less than 0.5 mg/L.)
same,Biapenem MIC,[12]; Compound 5 0.31 mg/L,Z (Z = MIC of greater than 4 mg/L.)
same,Biapenem MIC,[12]; Compound 5 0.625 mg/L,Z (Z = MIC of greater than 4 mg/L.)
same,Biapenem MIC,[12]; Compound 5 5 mg/L,X (X = MIC of less than 0.5 mg/L.)
same,Biapenem MIC,[13]; Compound 5 0.31 mg/L,X (X = MIC of less than 0.5 mg/L.)
same,Biapenem MIC,[13]; Compound 5 0.625 mg/L,X (X = MIC of less than 0.5 mg/L.)
same,Biapenem MIC,[13]; Compound 5 5 mg/L,X (X = MIC of less than 0.5 mg/L.)
same,Biapenem MIC,[13]; Compound 5 10 mg/L,X (X = MIC of less than 0.5 mg/L.)
same,Biapenem MIC,[14]; Compound 5 0.31 μg/ml,0.5 µg/mL
same,Biapenem MIC,[14]; Compound 5 0.63 μg/ml,0.25 µg/mL
same,Biapenem MIC,[14]; Compound 5 5 μg/ml,0.06 µg/mL
same,Biapenem MIC (μg/ml),[14]; Compound 5 10 μg/ml,≦0.03 μg/ml
same,Biapenem MIC (μg/ml),[14]; Compound 5 20 μg/ml,≦0.03 μg/ml
same,effect on Biapenem MIC,[15],decreased the Biapenem MIC
same,Aztreonam MIC (μg/ml) in the presence of BLI,[16]; Compound 5 0.31 μg/ml,256 µg/mL
same,Aztreonam MIC (μg/ml) in the presence of BLI,[16]; Compound 5 0.63 μg/ml,128 µg/mL
same,Aztreonam MIC (μg/ml) in the presence of BLI,[16]; Compound 5 5 μg/ml,8 µg/mL
same,Aztreonam MIC (μg/ml) in the presence of BLI,[16]; Compound 5 10 μg/ml,4 µg/mL
same,Aztreonam MIC (μg/ml) in the presence of BLI,[16]; Compound 5 20 μg/ml,2 µg/mL
same,effect on Aztreonam or Tigemonam MICs,[17],decreased the Aztreonam or Tigemonan MICs
